Tests used:
Assay type in all cases: in vivo
[1] = test system: Lolium perenne (LOLPE); assay: Test Example 1 post-emergence herbicidal activity; details: 360 h, rate 125 g/ha, evaluated 15 days later, read-out: Post-emergence activity LOLPE (100=total damage to plant; 0=no damage to plant)
Procedure: (§1) Monocotyledonous and dicotyledonous test plants were sown in standard soil in pots. After cultivation for one day (pre-emergence) or after 10 days cultivation (post-emergence) under controlled conditions in a glasshouse, the plants were sprayed with an aqueous spray solution derived from the formulation of the technical active ingredient in 0.6 ml acetone and 45 ml formulation solution containing 10.6% Emulsogen EL (Registry number 61791-12-6), 42.2% N-methylpyrrolidone, 42.2% dipropylene glycol monomethyl ether (Registry number 34590-94-8) and 0.2% X-77 (Registry number 11097-66-8). The test plants were then grown in a greenhouse under optimum conditions until, 15 days later for post-emergence and 20 days for pre-emergence, the test was evaluated (100=total damage to plant; 0=no damage to plant).
(§2) Alopecurus myosuroides (ALOMY), Avena fatua (AVEFA), Lolium perenne (LOLPE), Setaria faberi (SETFA), Digitaria sanguinalis (DIGSA), Echinochloa crus-galli (ECHCG)

[2] = test system: Echinochloa crus-galli (ECHCG); assay: Test Example 1 post-emergence herbicidal activity; details: 360 h, rate 125 g/ha, evaluated 15 days later, read-out: Post-emergence activity ECHCG (100=total damage to plant; 0=no damage to plant)
Procedure: as §1, §2

[3] = test system: Avena fatua (AVEFA); assay: Test Example 1 post-emergence herbicidal activity; details: 360 h, rate 125 g/ha, evaluated 15 days later, read-out: Post-emergence activity AVEFA (100=total damage to plant; 0=no damage to plant)
Procedure: as §1, §2

[4] = test system: Digitaria sanguinalis (DIGSA); assay: Test Example 1 post-emergence herbicidal activity; details: 360 h, rate 125 g/ha, evaluated 15 days later, read-out: Post-emergence activity DIGSA (100=total damage to plant; 0=no damage to plant)
Procedure: as §1, §2

[5] = test system: Setaria faberi (SETFA); assay: Test Example 1 post-emergence herbicidal activity; details: 360 h, rate 125 g/ha, evaluated 15 days later, read-out: Post-emergence activity SETFA (100=total damage to plant; 0=no damage to plant)
Procedure: as §1, §2

[6] = test system: Alopecurus myosuroides (ALOMY); assay: Test Example 1 post-emergence herbicidal activity; details: 360 h, rate 125 g/ha, evaluated 15 days later, read-out: Post-emergence activity ALOMY (100=total damage to plant; 0=no damage to plant)
Procedure: as §1, §2

[7] = test system: Lolium perenne (LOLPE); assay: Test Example 1 pre-emergence herbicidal activity; details: Lolium perenne, 480 h, rate 250 g/ha, evaluated 20 days later, read-out: Pre-emergence activity LOLPE (100=total damage to plant; 0=no damage to plant)
Procedure: as §1, §2

[8] = test system: Echinochloa crus-galli (ECHCG); assay: Test Example 1 pre-emergence herbicidal activity; details: Echinochloa crus-galli, 480 h, rate 250 g/ha, evaluated 20 days later, read-out: Pre-emergence activity ECHCG (100=total damage to plant; 0=no damage to plant)
Procedure: as §1, §2

[9] = test system: Avena fatua (AVEFA); assay: Test Example 1 pre-emergence herbicidal activity; details: Avena fatua, 480 h, rate 250 g/ha, evaluated 20 days later, read-out: Pre-emergence activity AVEFA (100=total damage to plant; 0=no damage to plant)
Procedure: as §1, §2

[10] = test system: Digitaria sanguinalis (DIGSA); assay: Test Example 1 pre-emergence herbicidal activity; details: Digitaria sanguinalis, 480 h, rate 250 g/ha, evaluated 20 days later, read-out: Pre-emergence activity DIGSA (100=total damage to plant; 0=no damage to plant)
Procedure: as §1, §2

[11] = test system: Setaria faberi (SETFA); assay: Test Example 1 pre-emergence herbicidal activity; details: Setaria faberi, 480 h, rate 250 g/ha, evaluated 20 days later, read-out: Pre-emergence activity SETFA (100=total damage to plant; 0=no damage to plant)
Procedure: as §1, §2

[12] = test system: Alopecurus myosuroides (ALOMY); assay: Test Example 1 pre-emergence herbicidal activity; details: Alopecurus myosuroides, 480 h, rate 250 g/ha, evaluated 20 days later, read-out: Pre-emergence activity ALOMY (100=total damage to plant; 0=no damage to plant)
Procedure: as §1, §2

| SMILES | pest or weed control at 125 g/ha [1] | pest or weed control at 125 g/ha [2] | pest or weed control at 125 g/ha [3] | pest or weed control at 125 g/ha [4] | pest or weed control at 125 g/ha [5] | pest or weed control at 125 g/ha [6] | pest or weed control at 250 g/ha [7] | pest or weed control at 250 g/ha [8] | pest or weed control at 250 g/ha [9] | pest or weed control at 250 g/ha [10] | pest or weed control at 250 g/ha [11] | pest or weed control at 250 g/ha [12] |
| --- | --- | --- | --- | --- | --- | --- | --- | --- | --- | --- | --- | --- |
| CCc1cc(C)cc(CC)c1C1=C(O)[C@@H]2[C@@H]3O[C@@H](C[C@H]3c3ccccc3F)[C@@H]2C1=O (racemic) [Example T170] | 80% | 100% | 70% | 40% | 40% | 80% | 90% | 80% | 40% | 70% | 70% | 80% |
| Cc1cc(C)c(C2=C(O)[C@H]3[C@@H](C2=O)[C@@H]2C=C[C@@]3(CSC(C)C)O2)c(C)c1 (racemic) [Example T43] | 0% | 60% | 0% | 20% | 40% | 10% | 0% | 0% | 20% | 20% | 50% | 10% |
| CCc1cc(C)cc(CC)c1C1=C(O)[C@@H]2[C@@H]3O[C@@H](C[C@H]3c3ccc([N+](=O)[O-])cc3Cl)[C@@H]2C1=O [Example T167] | 50% | 100% | 50% | 70% | 70% | 80% | 40% | 50% | 40% | 30% | 0% | 30% |
| CCc1cc(C)cc(CC)c1C1=C(O)[C@@H]2[C@@H]3O[C@@H](C[C@H]3c3cccc(C(F)(F)F)c3)[C@@H]2C1=O [Example T154] | 60% | 100% | 60% | 70% | 70% | 90% | 80% | 100% | 50% | 70% | 70% | 70% |
| CC1=C[C@@H]2O[C@H]1[C@H]1C(O)=C(c3c(C)cc(C)cc3C)C(=O)[C@H]12 (racemic) [Example T44] | 20% | 90% | 50% | 80% | 80% | 80% | 70% | 70% | 40% | 80% | 80% | 80% |
| Cc1cc(C)c(C2=C(O)[C@@H]3[C@@H]4O[C@@H]([C@H](Br)[C@H]4Br)[C@@H]3C2=O)c(C)c1 [Example T46] | 0% | 80% | 0% | 0% | 60% | 0% | 30% | 70% | 0% | 20% | 30% | 10% |
| COc1cc(C)c(C2=C(O)[C@H]3[C@@H](C2=O)[C@@H]2CC[C@H]3O2)c(C)c1 [Example T208] | 80% | 80% | 70% | 50% | 70% | 70% | 80% | 80% | 70% | 70% | 80% | 50% |
| CCc1cc(C)cc(CC)c1C1=C(O)[C@@H]2[C@@H]3O[C@@H](C[C@H]3c3cccc(F)c3C#N)[C@@H]2C1=O [Example T157] | 40% | 100% | 60% | 60% | 60% | 60% | 70% | 50% |  | 0% | 0% | 30% |
| Cc1cc(C)c(C2=C(OC(=O)C(C)(C)C)[C@H]3[C@@H](C2=O)[C@@H]2CC[C@H]3O2)c(C)c1 (racemic) [Example P33, (1RS,2SR,6RS,7SR)-5-oxo-4-(2,4,6-trimethylphenyl)-10-oxatricyclo[5.2.1.0^2,6]dec-3-en-3-yl 2,2-dimethylpropionate] | 80% | 90% | 70% | 70% | 70% | 80% | 100% |  | 70% | 80% | 80% | 90% |
| CSC[C@]12CC[C@H](O1)[C@@H]1C(=O)C(c3c(C)cc(C)cc3C)=C(O)[C@@H]12 [Example T53] |  |  |  |  |  |  | 10% | 0% | 20% | 10% | 10% | 10% |
| CCc1cc(C)cc(CC)c1C1=C(OC(=O)OCC(C)C)[C@H]2[C@@H](C1=O)[C@@H]1CC[C@H]2O1 (racemic) [Example P24] |  | 100% |  |  | 100% | 100% | 100% | 100% | 90% | 100% | 100% | 90% |
| CCc1cc(C)cc(CC)c1C1=C(O)[C@@H]2[C@@H]3O[C@@H](C[C@H]3c3cccc(Cl)c3)[C@@H]2C1=O [Example T148] |  |  |  |  |  |  | 70% | 80% | 50% | 70% | 60% | 60% |
| COC[C@]12CC[C@H](O1)[C@@H]1C(=O)C(c3c(C)cc(C)cc3C)=C(OC(=O)C3CC3)[C@@H]12 (single isomer, unassigned) [Example P30] | 70% | 100% |  | 90% | 80% | 80% | 90% | 90% | 80% | 80% | 80% | 80% |

— patent publication US8754242B2, “Herbicides” (Syngenta Crop Protection LLC, priority 2007, dated 2014)
